This experiment concerns the target human recombinant ATX (Homo sapiens (Human), UniProt Q13822). The experiment in a line: Autotaxin (ATX) activity Quanta Red assay. Type of experiment: biochemical. Conditions: 15 μM Rac-1-Palmitoyl-glycero-3-phosphocholine, 2 hours room temperature, determined in duplicate. Here is the method: The ATX enzyme assay (Quanta Red assay) described in accompanying Example section may be used to measure the pharmacological effects of the compounds of the present invention.
Autotaxin (ATX) Activity Quanta Red Assay
Measuring ATX activity using an enzyme coupled Quanta Red assay (Thermo Scientific—Pierce Protein Research Products, Product #15159) was determined as follows. 8 μL human recombinant ATX (final concentration 0.8 μg/mL) in 1× Assay buffer containing 50 mM Tris-HCl (pH 8.0), 5 mM CaCl2 was added to an opaque black flat-bottom 384-well plate (Corning, #3575) containing 2 μL test compound in 40% DMSO (4% final DMSO concentration). 10 μL of Quanta Red, Horseradish peroxidase (HRP), Choline Oxidase (CO), Rac-1-Palmitoyl-glycero-3-phosphocholine solution (final concentration 1:250 for Quanta Red, 0.5units/ml HRP, 0.5units/ml CO, 15 μM Rac-1-Palmitoyl-glycero-3-phosphocholine) in 1× assay buffer (as described previously) was added to each well to start the reaction and the plate was incubated at room temperature for 2 hours. The reaction was stopped after 2 hours with a 20 μL addition of Quanta Red Stop solution (1:20 dilution in distilled water). The above-described mixture with DMSO alone was used as a positive control whereas that with DMSO alone without ATX was taken as a negative control.
For each test compound, ten concentrations were measured covering a range of 6.1 nM to 120 μM to determine IC50 values. The top concentration was decreased to 1.2 μM when a test compound's IC50 value was evaluated in low nanomolar range. Fluorescence was determined in a BMG Labtech Pherastar plus plate reader ([…]). Data were analysed using Excel fit software. IC50 values were determined in duplicate.

Each structure is given as a SMILES string. Counter-ions that a name gives are not always drawn.

One may read the IC50 as the concentration that inhibits the measured activity by half.

On to `CCCN(CCC)Cc1ccc(N2CC(C(=O)Nc3nnc(CCc4ccc(Cl)cc4)s3)CC2=O)cc1` (centres unmarked) [Compound F116, N-[5-[2-(4-chlorophenyl)ethyl]-1,3,4-thiadiazol-2-yl]-1-[4-[(dipropyl-amino)methyl]phenyl]-5-oxo-pyrrolidine-3-carboxamide], for which the IC50 was 3 nM.
Consider `O=C(Nc1nnc(CCC2CCCCO2)s1)[C@H]1CC(=O)N(c2ccc(CN3CCOCC3)cc2)C1` (stereo partly drawn) [Compound F165, (3S)-1-[4-(morpholinomethyl)phenyl]-5-oxo-N-[5-(2-tetrahydropyran-2-ylethyl)-1,3,4-thiadiazol-2-yl]pyrrolidine-3-carboxamide], for which the IC50 amounted to 95 nM.
The result for `COc1ccc(CCc2cc(NC(=O)C3CC(=O)N(c4ccc(CN5CCOCC5)cc4)C3)on2)cc1` (centres unmarked) [Compound F199, N-[3-[2-(4-methoxyphenyl)ethyl]isoxazol-5-yl]-1-[4-(morpholinomethyl)phenyl]-5-oxo-pyrrolidine-3-carboxamide] reads 293 nM.
As for `O=C(Nc1nnc(CCc2ccc(Cl)cc2)s1)C1CC(=O)N(c2ccc(CN3CCCCCC3)cc2)C1` (centres unmarked) [Compound F114, 1-[4-(azepan-1-ylmethyl)phenyl]-N-[5-[2-(4-chlorophenyl)ethyl]-1,3,4-thiadiazol-2-yl]-5-oxo-pyrrolidine-3-carboxamide], the IC50 is 3 nM.
Take `O=C(N[C@@H]1CC(=O)N(c2ccc(CN3CCOCC3)cc2)C1)c1nnc(CCc2ccc(Cl)cc2)s1` [Compound F130, 5-[2-(4-chlorophenyl)ethyl]-N-[(3R)-1-[4-(morpholinomethyl)phenyl]-5-oxo-pyrrolidine-3-yl]-1,3,4-thiadiazole-2-carboxamide]: the IC50 was found to be 2 nM.
Then `CC1(O)CCN(Cc2ccc(N3C[C@H](NC(=O)c4nnc(CCc5ccc(Cl)cc5)s4)CC3=O)cc2)CC1` [Compound F169, 5-[2-(4-chlorophenyl)ethyl]-N-[(3R)-1-[4-[(4-hydroxy-4-methyl-1-piperidyl)methyl]phenyl]-5-oxo-pyrrolidin-3-yl]-1,3,4-thiadiazole-2-carboxamide], with 22 nM; and `CC(C)(C)OC(=O)N1CCN(Cc2ccc(N3CC(C(=O)Nc4nnc(CCc5ccc(Cl)cc5)s4)CC3=O)cc2)CC1` (centres unmarked) [Compound F157, tert-butyl 4-[[4-[4-[[5-[2-(4-chlorophenyl)ethyl]-1,3,4-thiadiazol-2-yl]carbamoyl]-2-oxo-pyrrolidin-1-yl]phenyl]methyl] piperazine-1-carboxylate], with 15 nM; and `O=C(Nc1nnc(CCc2ccc(Cl)cc2)s1)[C@H]1CC(=O)N(c2ccc(CN3CCCCC3)cc2)C1` [Compound F93, (3S)-N-[5-[2-(4-chlorophenyl)ethyl]-1,3,4-thiadiazol-2-yl]-5-oxo-1-[4-(1-piperidylmethyl)phenyl] pyrrolidine-3-carboxamide], with 1 nM.
The result for `O=C(Nc1nnc(CCC2CCOCC2)s1)C1CC(=O)N(c2ccc(CN3CCCCC3)cc2)C1` (centres unmarked) [Compound F189, 5-oxo-1-[4-(1-piperidylmethyl)phenyl]-N-[5-(2-tetrahydropyran-4-ylethyl)-1,3,4-thiadiazol-2-yl]pyrrolidine-3-carboxamide] reads 487 nM; that for `CC(C)N(C)Cc1ccc(N2CC(C(=O)Nc3nnc(CCc4ccc(Cl)cc4)s3)CC2=O)cc1` (centres unmarked) [Compound F159, N-[5-[2-(4-chlorophenyl)ethyl]-1,3,4-thiadiazol-2-yl]-1-[4-[[isopropyl (methyl)amino]methyl]phenyl]-5-oxo-pyrrolidine-3-carboxamide], 18 nM.
The result for `CCN(C)Cc1ccc(N2CC(C(=O)Nc3nnc(CCc4ccc(Cl)cc4)s3)CC2=O)cc1` (centres unmarked) [Compound F211, 1-{4-[(Ethyl-methyl-amino)-methyl]-phenyl}-5-oxo-pyrrolidine-3-carboxylic acid {5-[2-(4-chloro-phenyl)-ethyl]-[1,3,4]thiadiazol-2-yl}-amide] reads 9 nM.
For the compound `Cn1nc(NC(=O)C2CC(=O)N(c3ccc(CN4CCOCC4)cc3)C2)cc1CCc1ccc(Cl)cc1` (centres unmarked) [Compound F192, N-[5-[2-(4-chlorophenyl)ethyl]-1-methyl-pyrazol-3-yl]-1-[4-(morpholinomethyl)phenyl]-5-oxo-pyrrolidine-3-carboxamide], the IC50 worked out at 773 nM.
The result for `O=C(Nc1ncc(COC2CCCCC2)s1)C1CC(=O)N(c2ccc(CN3CCOCC3)cc2)C1` (centres unmarked) [Compound F187, N-[5-(cyclohexoxymethyl)thiazol-2-yl]-1-[4-(morpholinomethyl)phenyl]-5-oxo-pyrrolidine-3-carboxamide] reads 163 nM; that for `O=C(Nc1nnc(CCc2ccc(C(F)(F)F)cc2)s1)[C@H]1CC(=O)N(c2ccc(CN3CCOCC3)cc2)C1` [Compound F97, (3S)-1-[4-(morpholinomethyl)phenyl]-5-oxo-N-[5-[2-[4-(trifluoromethyl)phenyl]ethyl]-1,3,4-thiadiazol-2-yl]pyrrolidine-3-carboxamide], 2 nM.
Then `O=C(Nc1nnc(CCC2CCCC2)s1)C1CC(=O)N(c2ccc(CN3CCCOCC3)cc2)C1` (centres unmarked) [Compound F122, N-[5-(2-cyclopentylethyl)-1,3,4-thiadiazol-2-yl]-1-[4-(1,4-oxazepan-4-ylmethyl)phenyl]-5-oxo-pyrrolidine-3-carboxamide], with 4 nM; and `O=C(Nc1nnc(CCc2ccc(Cl)cc2)s1)[C@H]1CC(=O)N(c2ccc(CN3CC4(COC4)C3)cc2)C1` [Compound F213, (3S)-N-[5-[2-(4-chlorophenyl)ethyl]-1,3,4-thiadiazol-2-yl]-1-[4-(2-oxa-6-azaspiro[3.3]heptan-6-ylmethyl)phenyl]-5-oxo-pyrrolidine-3-carboxamide], with 1 nM; and `O=C(Nc1cc(CCc2ccccc2)on1)C1CC(=O)N(c2ccc(CN3CCOCC3)cc2)C1` (centres unmarked) [Compound F158, 1-[4-(morpholinomethyl)phenyl]-5-oxo-N-[5-(2-phenylethyl)isoxazol-3-yl]pyrrolidine-3-carboxamide], with 17 nM.
The result for `O=C(Nc1nnc(CCC2CCCCC2)s1)C1CC(=O)N(c2ccc(CN3CCOCC3)cc2)C1` (centres unmarked) [Compound F147, N-[5-(2-cyclohexylethyl)-1,3,4-thiadiazol-2-yl]-1-[4-(morpholinomethyl)phenyl]-5-oxo-pyrrolidine-3-carboxamide] reads 2 nM; that for `O=C(Nc1nnc(CCc2ccc(Cl)cc2)s1)C1CC(=O)N(c2ccc(CN3CCCC3)cc2)C1` (centres unmarked) [Compound F151, N-[5-[2-(4-chlorophenyl)ethyl]-1,3,4-thiadiazol-2-yl]-5-oxo-1-[4-(pyrrolidin-1-ylmethyl)phenyl] pyrrolidine-3-carboxamide], 9 nM.
As to `O=C(Nc1nnc(CCC2CCCC2)s1)C1CC(=O)N(c2ccc(CN3CCCC(F)(F)C3)cc2)C1` (centres unmarked) [Compound F115, N-[5-(2-cyclopentylethyl)-1,3,4-thiadiazol-2-yl]-1-[4-[(3,3-difluoro-1-piperidyl)methyl]phenyl]-5-oxo-pyrrolidine-3-carboxamide], the IC50 was determined as 3 nM.
The result for `O=C(Nc1nnc(CCc2ccc(Cl)cc2)s1)C1CC(=O)N(c2ccc(CN3CCCOCC3)cc2)C1` (centres unmarked) [Compound F101, N-[5-[2-(4-chlorophenyl)ethyl]-1,3,4-thiadiazol-2-yl]-1-[4-(1,4-oxazepan-4-ylmethyl)phenyl]-5-oxo-pyrrolidine-3-carboxamide] reads 3 nM; that for `COc1ccc(CCc2nnc(NC(=O)C3CC(=O)N(c4ccc(CN5CCOCC5)cc4)C3)o2)cc1` (centres unmarked) [Compound F207, N-[5-[2-(4-methoxyphenyl)ethyl]-1,3,4-oxadiazol-2-yl]-1-[4-(morpholinomethyl)phenyl]-5-oxo-pyrrolidine-3-carboxamide], 2450 nM.
The result for `O=C(Nc1nnc(CCC2CCCCC2)s1)C1CC(=O)N(c2ccc(CN3CCCOCC3)cc2)C1` (centres unmarked) [Compound F96, N-[5-(2-cyclohexylethyl)-1,3,4-thiadiazol-2-yl]-1-[4-(1,4-oxazepan-4-ylmethyl)phenyl]-5-oxo-pyrrolidine-3-carboxamide] reads 2 nM; that for `CN1CCC(C(=O)NCc2ccc(N3CC(C(=O)Nc4nnc(CCc5ccc(Cl)cc5)s4)CC3=O)cc2)CC1` (centres unmarked) [Compound F184, 1-Methyl-piperidine-4-carboxylic acid 4-(4-{5-[2-(4-chloro-phenyl)-ethyl]-[1,3,4]thiadiazol-2-ylcarbamoyl}-2-oxo-pyrrolidin-1-yl)-benzylamide], 45 nM.
Then `O=C(Nc1nnc(CCc2ccc(Cl)cc2)s1)C1CC(=O)N(c2ccc(CNC3CCOCC3)cc2)C1` (centres unmarked) [Compound F105, 5-oxo-1-{4-[(tetrahydro-pyran-4-ylamino)-methyl]-phenyl}-pyrrolidine-3-carboxylic acid {5-[2-(4-chloro-phenyl)-ethyl]-[1,3,4]thiadiazol-2-yl}-amide; hydrochloride], with 3 nM.
Turning to `O=C(Nc1nnc(CCc2ccc(Cl)cc2)s1)[C@H]1CC(=O)N(c2ccc(CN3CCCCCC3)cc2)C1` [Compound F91, (3S)-1-[4-(azepan-1-ylmethyl)phenyl]-N-[5-[2-(4-chlorophenyl)ethyl]-1,3,4-thiadiazol-2-yl]-5-oxo-pyrrolidine-3-carboxamide], the IC50 turned out to be 1 nM.

The values above are taken from patent US10138230B2, “Autotaxin inhibitors” (CANCER RESEARCH TECHNOLOGY LIMITED, priority 2015, dated 2018).
